This note sets out measurements from paper PMC7725459 (Science Advances, 2020).

One test deals with SARS-CoV-2 HM-M^pro (Severe acute respiratory syndrome coronavirus 2, UniProt P0DTD1). In kind it is binding.
Test [1] concerns the target T1, SARS-CoV-2 M^pro (Severe acute respiratory syndrome coronavirus 2, UniProt P0DTD1). In kind it is biochemical. As to conditions: versus GC-376.
Test [2] deals with T1, SARS-CoV-2 M^pro. The test can be described thus: Binding to SARS-CoV-2 M^pro using native mass spectrometry. As to conditions: 10 μM ligand, 4 mM DTT.

For the compound `CC(C)C[C@H](NC(=O)OCc1ccccc1)C(=O)N[C@@H](CC(C)C)C(=O)N[C@@H](CC1CCNC1=O)C(=O)C(=O)NC1CC1` (stereo partly drawn) [UAWJ248], at SARS-CoV-2 HM-M^pro, the “ΔTm shift, HM-M^pro construct” value came out at 10.01 °C. Also, the “fold more potent than GC-376 (k2/KI)” value on SARS-CoV-2 M^pro [1] is 3.2 fold. For the same compound, on SARS-CoV-2 M^pro [2], the “binding to M^pro by native mass spectrometry” value is recorded as “confirmed”.
